Patent publication US7259173B2, “Derivatives of 3-phenyl-n-(2-(4-benzyl)-piperidin-1-yl)-ethyl)-acrylamid with ccr-3-receptor antagonistic activity for use in the treatment of inflammations and allergic conditions” (Novartis AG, priority 2001, dated 2007)

Molecular target: T1, human CCR-3 (Homo sapiens, UniProt P51677)
T1 construct: expressed in transfected cells; host or cells: rat basophil leukemia (RBL-2H3) cells, membranes
T1 sequence (P51677 1-355): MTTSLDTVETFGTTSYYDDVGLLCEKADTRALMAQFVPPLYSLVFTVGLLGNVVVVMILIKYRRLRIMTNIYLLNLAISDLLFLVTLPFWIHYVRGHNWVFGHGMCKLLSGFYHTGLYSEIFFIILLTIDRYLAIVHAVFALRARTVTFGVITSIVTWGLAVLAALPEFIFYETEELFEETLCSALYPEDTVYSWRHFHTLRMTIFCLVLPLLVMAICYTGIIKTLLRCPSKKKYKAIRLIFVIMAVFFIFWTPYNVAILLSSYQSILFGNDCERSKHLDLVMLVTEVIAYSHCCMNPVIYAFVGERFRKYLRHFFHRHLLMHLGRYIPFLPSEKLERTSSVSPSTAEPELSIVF
Assay: CCR-3 Binding Assay ([125I]-human eotaxin SPA)
Settings: inhibition of [125I]-human eotaxin binding to human CCR-3, membranes of RBL-2H3 cells expressing CCR3
Procedure: In this assay the effect of agents of the invention on the binding of human eotaxin to human CCR-3 is determined. Recombinant cells expressing human CCR-3 are captured by wheatgerm agglutinin (WGA) polyvinyltoluidene (PVT) SPA beads (available from Amersham), through a specific interaction between the WGA and carbohydrate residues of glycoproteins on the surface of the cells. [^125I]-human eotaxin (available from Amersham) binds specifically to CCR-3 receptors bringing the [^125I]-human eotaxin in close proximity to the SPA beads. Emitted â-particles from the [^125I]-human eotaxin excite, by its proximity, the fluorophore in the beads and produce light.
Preparation of Assay Buffer: 5.96 g HEPES and 7.0 g sodium chloride are dissolved in distilled water and 1M aqueous CaCl2 (1 mL) and 1M aqueous MgCl2 (5 mL) are added. The pH is adjusted to 7.6 with NaOH and the solution made to a final volume of 1 L using distilled water. 5 g bovine serum albumin and 0.1 g sodium azide are then dissolved in the solution and the resulting buffer stored at 4° C. A Complete™ protease inhibitor cocktail tablet (available from Boehringer) is added per 50 mL of the buffer on the day of use.
Preparation of Homogenisation Buffer: Tris-base (2.42 g) is dissolved in distilled water, the pH of the solution is adjusted to 7.6 with hydrochloric acid and the solution is diluted with distilled water to a final volume of 1 L. The resulting buffer is stored at 4° C. A Complete™ protease inhibitor cocktail tablet is added per 50 mL of the buffer on the day of use.
Preparation of membranes: Confluent rat basophil leukemia (RBL-2H3) cells stably expressing CCR3 are removed from tissue culture flasks using enzyme-free cell dissociation buffer and resuspended in phosphate-buffered saline. […]
The assay is performed in a final volume of 250 μL per well of an Optiplate (ex Canberra Packard). […] The resulting scintillations are counted using a Canberra Packard TopCount, each well being counted for 1 minute. […]

COc1ccc(C#N)cc1/C=C/C(=O)N[C@H](CO)CN1CCC(Cc2ccc(Cl)cc2)CC1 [Example 2, (E)-3-(5-Cyano-2-methoxy-phenyl)-N-{(S)-2-[4-(4-chloro-benzyl)-piperidin-1-yl]-1-hydroxymethyl-ethyl}-acrylamide]
IC50: 6 nM

COc1ccc(Br)cc1/C=C/C(=O)NCCN1CCC(Cc2ccc(F)cc2)CC1 [Example 3, (E)-3-(5-Bromo-2-methoxy-phenyl)-N-{2-[4-(4-fluoro-benzyl)-piperidin-1-yl]-ethyl}-acrylamide]
IC50: 34.7 nM

COc1ccc(C#N)cc1/C=C/C(=O)N[C@H](CO)CN1CCC(Cc2ccc(F)cc2)CC1 [Example 4, (E)-3-(5-Cyano-2-methoxy-phenyl)-N-{(S)-2-[4-(4-fluoro-benzyl)-piperidin-1-yl]-1-hydroxymethyl-ethyl}-acrylaniide]
IC50: 6 nM
